Active and inactive are the calls of the source. The calls are words filed in the database; no cut-off is given here.
What was measured:
Arabidopsis thaliana [1] = experiment: Growth inhibition of Arabidopsis thaliana var. Columbia assessed as root tip puffing after 9 days by agarose-based test; type: functional, organism-based
Helianthus annuus [2] = experiment: Herbicidal activity against Helianthus annuus (sunflower) assessed as visual injury at 100 ug/seedling applied to cotyledon after 1 week relative to control; type: functional
Abutilon theophrasti [3] = experiment: Herbicidal activity against Abutilon theophrasti (velvetleaf) assessed as visual injury at 100 ug/seedling applied to meristem after 1 week relative to control; type: functional
Abutilon theophrasti [4] = experiment: Herbicidal activity against Abutilon theophrasti (velvetleaf) assessed as visual injury at 1 ug/seedling applied to leaf after 1 week relative to control; type: functional
[5] = system: Agrostis stolonifera var. palustris; experiment: Herbicidal activity against Agrostis stolonifera var. palustris after 9 days by agarose-based test; type: functional
Abutilon theophrasti [6] = experiment: Herbicidal activity against Abutilon theophrasti (velvetleaf) assessed as visual injury at 100 ug/seedling applied to leaf after 1 week relative to control; type: functional
Helianthus annuus [7] = experiment: Herbicidal activity against Helianthus annuus (sunflower) assessed as visual injury at 10 ug/seedling applied to meristem after 1 week relative to control; type: functional
Arabidopsis thaliana [8] = experiment: Growth inhibition of Arabidopsis thaliana var. Columbia after 9 days by agarose-based test; type: functional
Arabidopsis thaliana [9] = experiment: Growth inhibition of Arabidopsis thaliana var. Columbia assessed as stunting after 9 days by agarose-based test; type: functional, organism-based
[10] = system: Agrostis stolonifera var. palustris; experiment: Herbicidal activity against Agrostis stolonifera var. palustris assessed as root tip puffing after 9 days by agarose-based test; type: functional, organism-based
Helianthus annuus [11] = experiment: Herbicidal activity against Helianthus annuus (sunflower) assessed as visual injury at 10 ug/seedling applied to cotyledon after 1 week relative to control; type: functional
Abutilon theophrasti [12] = experiment: Herbicidal activity against Abutilon theophrasti (velvetleaf) assessed as visual injury at 10 ug/seedling applied to leaf after 1 week relative to control; type: functional
Helianthus annuus [13] = experiment: Herbicidal activity against Helianthus annuus (sunflower) assessed as visual injury at 1 ug/seedling applied to cotyledon after 1 week relative to control; type: functional
Helianthus annuus [14] = experiment: Herbicidal activity against Helianthus annuus (sunflower) assessed as visual injury at 100 ug/seedling applied to meristem after 1 week relative to control; type: functional
[15] = system: Agrostis stolonifera var. palustris; experiment: Herbicidal activity against Agrostis stolonifera var. palustris assessed as stunting after 9 days by agarose-based test; type: functional, organism-based
Abutilon theophrasti [16] = experiment: Herbicidal activity against Abutilon theophrasti (velvetleaf) assessed as visual injury at 10 ug/seedling applied to meristem after 1 week relative to control; type: functional
Helianthus annuus [17] = experiment: Herbicidal activity against Helianthus annuus (sunflower) assessed as visual injury at 1 ug/seedling applied to meristem after 1 week relative to control; type: functional
Abutilon theophrasti [18] = experiment: Herbicidal activity against Abutilon theophrasti (velvetleaf) assessed as visual injury at 1 ug/seedling applied to meristem after 1 week relative to control; type: functional
Ipomoea hederacea [19] = experiment: Post-emergence herbicidal activity against Ipomoea hederacea (ivy-leaved morning glory) assessed as visual injury at 2 kg/ha after 9 days relative to control; type: functional
Helianthus annuus [20] = experiment: Post-emergence growth inhibition of Helianthus annuus (sunflower) assessed as visual injury at 1 kg/ha after 9 days relative to control; type: functional; set-up: scale not given: the % may be the effect or the level left
Avena fatua [21] = experiment: Post-emergence growth inhibition of Avena fatua assessed as visual injury at 0.25 kg/ha after 9 days relative to control; type: functional; set-up: scale not given: the % may be the effect or the level left
Helianthus annuus [22] = experiment: Post-emergence growth inhibition of Helianthus annuus (sunflower) assessed as visual injury at 0.5 kg/ha after 9 days relative to control; type: functional; set-up: scale not given: the % may be the effect or the level left
Echinochloa crus-galli [23] = experiment: Post-emergence herbicidal activity against Echinochloa crus-galli (barnyard grass) assessed as visual injury at 0.25 kg/ha after 9 days relative to control; type: functional
Avena fatua [24] = experiment: Post-emergence growth inhibition of Avena fatua assessed as visual injury at 1 kg/ha after 9 days relative to control; type: functional; set-up: scale not given: the % may be the effect or the level left
Avena fatua [25] = experiment: Post-emergence growth inhibition of Avena fatua assessed as visual injury at 0.5 kg/ha after 9 days relative to control; type: functional; set-up: scale not given: the % may be the effect or the level left
Helianthus annuus [26] = experiment: Post-emergence growth inhibition of Helianthus annuus (sunflower) assessed as visual injury at 2 kg/ha after 9 days relative to control; type: functional; set-up: scale not given: the % may be the effect or the level left
Ipomoea hederacea [27] = experiment: Post-emergence herbicidal activity against Ipomoea hederacea (ivy-leaved morning glory) assessed as visual injury at 0.25 kg/ha after 9 days relative to control; type: functional
Echinochloa crus-galli [28] = experiment: Post-emergence herbicidal activity against Echinochloa crus-galli (barnyard grass) assessed as visual injury at 2 kg/ha after 9 days relative to control; type: functional
Ipomoea hederacea [29] = experiment: Post-emergence herbicidal activity against Ipomoea hederacea (ivy-leaved morning glory) assessed as visual injury at 0.5 kg/ha after 9 days relative to control; type: functional
Ipomoea hederacea [30] = experiment: Post-emergence herbicidal activity against Ipomoea hederacea (ivy-leaved morning glory) assessed as visual injury at 1 kg/ha after 9 days relative to control; type: functional
Avena fatua [31] = experiment: Post-emergence growth inhibition of Avena fatua assessed as visual injury at 2 kg/ha after 9 days relative to control; type: functional; set-up: scale not given: the % may be the effect or the level left
Echinochloa crus-galli [32] = experiment: Post-emergence herbicidal activity against Echinochloa crus-galli (barnyard grass) assessed as visual injury at 1 kg/ha after 9 days relative to control; type: functional
Echinochloa crus-galli [33] = experiment: Post-emergence herbicidal activity against Echinochloa crus-galli (barnyard grass) assessed as visual injury at 0.5 kg/ha after 9 days relative to control; type: functional
Helianthus annuus [34] = experiment: Post-emergence growth inhibition of Helianthus annuus (sunflower) assessed as visual injury at 0.25 kg/ha after 9 days relative to control; type: functional; set-up: scale not given: the % may be the effect or the level left
Helianthus annuus [35] = experiment: Post-emergence growth inhibition of Helianthus annuus (sunflower) assessed as visual injury at 0.125 kg/ha after 9 days relative to control; type: functional; set-up: scale not given: the % may be the effect or the level left
Ipomoea hederacea [36] = experiment: Post-emergence herbicidal activity against Ipomoea hederacea (ivy-leaved morning glory) assessed as visual injury at 0.125 kg/ha after 9 days relative to control; type: functional
Avena fatua [37] = experiment: Post-emergence growth inhibition of Avena fatua assessed as visual injury at 0.125 kg/ha after 9 days relative to control; type: functional; set-up: scale not given: the % may be the effect or the level left
Ipomoea hederacea [38] = experiment: Post-emergence herbicidal activity against Ipomoea hederacea (ivy-leaved morning glory) after 9 days; type: functional
Echinochloa crus-galli [39] = experiment: Post-emergence herbicidal activity against Echinochloa crus-galli (barnyard grass) assessed as visual injury at 0.125 kg/ha after 9 days relative to control; type: functional

O=C1N[C@@H](Cc2c[nH]c3cccc([N+](=O)[O-])c23)C(=O)N[C@H]1Cc1ccccc1 [DES-N-METHYLTHAXTOMIN C]
growth inhibition (GI) (Arabidopsis thaliana [1]): Active | Activity (Helianthus annuus [2]): 0% | Activity (Abutilon theophrasti [3]): 10% | Activity (Abutilon theophrasti [4]): 0% | I50 [5]: 600 ppb | Activity (Abutilon theophrasti [6]): 0% | Activity (Helianthus annuus [7]): 0% | I50 (Arabidopsis thaliana [8]): 400 ppb | growth inhibition (GI) (Arabidopsis thaliana [9]): Active | Activity [10]: Active | Activity (Helianthus annuus [11]): 0% | Activity (Abutilon theophrasti [12]): 0% | Activity (Helianthus annuus [13]): 0% | Activity (Helianthus annuus [14]): 50% | Activity [15]: Active | Activity (Abutilon theophrasti [16]): 0% | Activity (Helianthus annuus [17]): 0% | Activity (Abutilon theophrasti [18]): 0%

CN1C(=O)[C@](O)(Cc2ccc(O)c(O)c2)N(C)C(=O)[C@@H]1Cc1c[nH]c2cccc([N+](=O)[O-])c12 [HYDROXYTHAXTOMIN A]
growth inhibition (GI) (Arabidopsis thaliana [1]): Active | I50 [5]: 40 ppb | I50 (Arabidopsis thaliana [8]): 10 ppb | growth inhibition (GI) (Arabidopsis thaliana [9]): Active | Activity [10]: Active | Activity [15]: Active

CN1C(=O)[C@](O)(Cc2ccccc2)NC(=O)[C@@H]1Cc1c[nH]c2cccc([N+](=O)[O-])c12 [HYDROXYTHAXTOMIN C]
growth inhibition (GI) (Arabidopsis thaliana [1]): Active | Activity (Helianthus annuus [2]): 20% | Activity (Abutilon theophrasti [3]): 70% | Activity (Abutilon theophrasti [4]): 0% | I50 [5]: <40 ppb | Activity (Abutilon theophrasti [6]): 0% | Activity (Helianthus annuus [7]): 95% | I50 (Arabidopsis thaliana [8]): <40 ppb | growth inhibition (GI) (Arabidopsis thaliana [9]): Active | Activity [10]: Active | Activity (Helianthus annuus [11]): 0% | Activity (Abutilon theophrasti [12]): 0% | Activity (Helianthus annuus [13]): 0% | Activity (Helianthus annuus [14]): 100% | Activity [15]: Active | Activity (Abutilon theophrasti [16]): 20% | Activity (Helianthus annuus [17]): 80% | Activity (Abutilon theophrasti [18]): 0%

CN1C(=O)[C@](O)(Cc2ccccc2O)N(C)C(=O)[C@@H]1Cc1c[nH]c2cccc([N+](=O)[O-])c12 [THAXTOMIN A O-ISOMER]
growth inhibition (GI) (Arabidopsis thaliana [1]): Active | Activity (Ipomoea hederacea [19]): 40% | Activity (Helianthus annuus [20]): 75% | Activity (Avena fatua [21]): 0% | Activity (Helianthus annuus [22]): 10% | Activity (Echinochloa crus-galli [23]): 0% | Activity (Avena fatua [24]): 0% | Activity (Avena fatua [25]): 0% | I50 [5]: 90 ppb | Activity (Helianthus annuus [26]): 75% | Activity (Ipomoea hederacea [27]): 0% | I50 (Arabidopsis thaliana [8]): 100 ppb | Activity (Echinochloa crus-galli [28]): 20% | growth inhibition (GI) (Arabidopsis thaliana [9]): Active | Activity (Ipomoea hederacea [29]): 10% | Activity (Ipomoea hederacea [30]): 40% | Activity [10]: Active | Activity (Avena fatua [31]): 0% | Activity [15]: Active | Activity (Echinochloa crus-galli [32]): 0% | Activity (Echinochloa crus-galli [33]): 0% | Activity (Helianthus annuus [34]): 0%

CN1C(=O)[C@](O)(Cc2ccc(O)cc2)N(C)C(=O)[C@@H]1Cc1c[nH]c2cccc([N+](=O)[O-])c12 [THAXTOMIN A P-ISOMER]
growth inhibition (GI) (Arabidopsis thaliana [1]): Active | I50 [5]: 100 ppb | I50 (Arabidopsis thaliana [8]): 190 ppb | growth inhibition (GI) (Arabidopsis thaliana [9]): Active | Activity [10]: Active | Activity [15]: Active

CN1C(=O)[C@](O)(Cc2ccccc2)N(C)C(=O)[C@@H]1Cc1c[nH]c2cccc([N+](=O)[O-])c12 [THAXTOMIN B]
growth inhibition (GI) (Arabidopsis thaliana [1]): Active | I50 (Arabidopsis thaliana [8]): 28 ppb | growth inhibition (GI) (Arabidopsis thaliana [9]): Active | Activity [10]: Active | Activity [15]: Active

CN1C(=O)[C@H](Cc2ccccc2)NC(=O)[C@@H]1Cc1c[nH]c2cccc([N+](=O)[O-])c12 [THAXTOMIN C]
growth inhibition (GI) (Arabidopsis thaliana [1]): Active | Activity (Helianthus annuus [2]): 0% | Activity (Helianthus annuus [20]): 70% | Activity (Avena fatua [21]): 0% | Activity (Abutilon theophrasti [3]): 50% | Activity (Abutilon theophrasti [4]): 0% | Activity (Helianthus annuus [22]): 30% | Activity (Echinochloa crus-galli [23]): 0% | Activity (Helianthus annuus [35]): 30% | Activity (Avena fatua [24]): 0% | Activity (Avena fatua [25]): 0% | I50 [5]: 40 ppb | Activity (Abutilon theophrasti [6]): 0% | Activity (Helianthus annuus [7]): 30% | Activity (Ipomoea hederacea [36]): 70% | Activity (Ipomoea hederacea [27]): 80% | I50 (Arabidopsis thaliana [8]): 50 ppb | growth inhibition (GI) (Arabidopsis thaliana [9]): Active | Activity (Ipomoea hederacea [29]): 80% | Activity (Ipomoea hederacea [30]): 80% | Activity [10]: Active | Activity (Avena fatua [37]): 0% | Activity (Helianthus annuus [11]): 0% | Activity (Abutilon theophrasti [12]): 0% | Activity (Helianthus annuus [13]): 0% | Activity (Helianthus annuus [14]): 75% | Activity [15]: Active | Activity (Abutilon theophrasti [16]): 0% | Activity (Helianthus annuus [17]): 0% | GR50 (Ipomoea hederacea [38]): <125 g/ha | Activity (Echinochloa crus-galli [32]): 40% | Activity (Echinochloa crus-galli [39]): 0% | Activity (Echinochloa crus-galli [33]): 20% | Activity (Helianthus annuus [34]): 30% | Activity (Abutilon theophrasti [18]): 0%

Reference: ChEMBL document CHEMBL3046609, “Herbicidal properties of the thaxtomin group of phytotoxins” (2001)
